The target of assay [1] is T1, MR (UAS-MR-bla HEK293 cells) (Homo sapiens, UniProt P08235). As to the kind of experiment: cell-based.
For assay [2], the target named is T1, MR (UAS-MR-bla HEK293 cells). Description: Mineralocorticoid Cellular Reporter Gene Assay, Test B1 (0.25 nM aldosterone).
Assay [3] has as its target T2, human MR LBD (Homo sapiens (Human), UniProt P08235). As to conditions: read-out: Test A2 IC50; displacement of 5 nM 3H-aldosterone, MBP-MR LBD/P23 lysate, Imaging beads.
Procedure: In order to identify binding to the human MR LBD a scintillation proximity assay (SPA) was adapted to the 384-well format. The MR-LBD (amino acids T729-K985) was expressed as N-terminal fusion with maltose binding protein in Hi5 insect cells by co-infection with recombinant MBP-MR LBD and P23 baculoviruses and crude protein lysate was used in the assay.
Briefly, in Test A1 the assay was run in 384 well format in 10 mM Tris-HCl, pH 7.5, 0.5 mM EDTA 20 mM NaMoO4, 0.1 mM DTT and 10% glycerol at rt. Compounds were tested in a 7 (Test A1) or 10 (Test A2) concentration response curve ranging from 10 nM to 10 μM (Test A1) or 1 nM to 37 μM (Test A2). Compounds were spotted at the bottom of a well of a 384-well PE Opti-Plate to yield final DMSO concentrations in the assay of 2%. Pre-made MBP-MR/P23 lysate: ^3H-aldosterone mix (final assay concentration 7 μg/mL MBP-MR LBD/P23 lysate; 5 nM aldosterone) was added onto the top of the spotted compound and preincubated for 1 h at RT. […] The inhibition of the scintillation signal by displacement of the bound ^3H-aldosterone by test compounds is measured by scintillation counting using a Microbeta Trilux (Wallac) (Test A1) or a by CCD camera detection using a LEADseeker (PerkinElmer) (Test A2).
Assay [4] has as its target T2, human MR LBD. Description: Mineralocorticoid Binding, Test A1 (SPA beads, 3H-aldosterone displacement). As to conditions: displacement of 5 nM 3H-aldosterone, MBP-MR LBD/P23 lysate.

Read-outs that look alike come from different tables or passages of the source.

T1 sequence (P08235 whole entry, looked up): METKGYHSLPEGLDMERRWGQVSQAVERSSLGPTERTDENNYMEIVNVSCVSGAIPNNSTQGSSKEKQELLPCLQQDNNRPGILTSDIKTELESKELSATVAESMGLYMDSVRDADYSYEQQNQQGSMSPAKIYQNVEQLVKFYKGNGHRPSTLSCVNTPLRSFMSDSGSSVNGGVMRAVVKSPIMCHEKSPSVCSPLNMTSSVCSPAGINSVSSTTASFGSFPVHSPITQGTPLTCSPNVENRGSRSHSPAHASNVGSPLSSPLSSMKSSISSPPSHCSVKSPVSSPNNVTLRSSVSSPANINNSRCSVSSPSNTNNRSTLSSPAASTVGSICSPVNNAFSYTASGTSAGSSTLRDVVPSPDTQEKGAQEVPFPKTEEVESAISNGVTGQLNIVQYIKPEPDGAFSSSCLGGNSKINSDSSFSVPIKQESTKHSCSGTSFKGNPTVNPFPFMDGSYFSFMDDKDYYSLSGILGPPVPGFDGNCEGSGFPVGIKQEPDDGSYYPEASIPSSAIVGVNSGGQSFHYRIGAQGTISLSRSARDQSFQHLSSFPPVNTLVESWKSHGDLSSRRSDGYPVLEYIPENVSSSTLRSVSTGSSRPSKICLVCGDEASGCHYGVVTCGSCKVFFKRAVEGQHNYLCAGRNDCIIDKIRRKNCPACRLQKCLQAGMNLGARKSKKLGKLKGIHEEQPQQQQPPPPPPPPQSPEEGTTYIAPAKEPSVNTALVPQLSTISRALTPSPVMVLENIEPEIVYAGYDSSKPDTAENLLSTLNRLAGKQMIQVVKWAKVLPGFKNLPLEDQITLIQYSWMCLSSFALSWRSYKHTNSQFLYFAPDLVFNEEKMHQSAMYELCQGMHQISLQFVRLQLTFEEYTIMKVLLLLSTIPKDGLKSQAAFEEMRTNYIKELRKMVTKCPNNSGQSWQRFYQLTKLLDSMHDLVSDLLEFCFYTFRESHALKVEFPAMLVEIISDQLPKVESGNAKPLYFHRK
T2 sequence (P08235 729-984 limits assumed): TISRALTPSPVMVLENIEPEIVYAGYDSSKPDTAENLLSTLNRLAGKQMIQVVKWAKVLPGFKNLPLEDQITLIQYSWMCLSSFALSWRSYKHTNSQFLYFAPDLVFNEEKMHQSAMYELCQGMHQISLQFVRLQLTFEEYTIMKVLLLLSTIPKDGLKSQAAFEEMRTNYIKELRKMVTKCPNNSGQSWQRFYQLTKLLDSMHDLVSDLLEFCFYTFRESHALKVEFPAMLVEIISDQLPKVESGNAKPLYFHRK

Consider `NC(=O)CC1COc2ccccc2N1C(=O)c1ccc2c(c1)NC(=O)CO2` (stereo not shown) [Example 1], for which the half-maximal inhibitory concentration (IC50) is 0.62 µM in assay [1], 2.1 µM in assay [2], 2.9 µM on human MR LBD [3] and 1.4 µM on human MR LBD [4].
For the compound `NC(=O)C[C@H]1COc2cc(Br)ccc2N1C(=O)c1ccc2c(c1)NC(=O)CO2` [Example 7, 2-{(3S)-7-Bromo-4-[(3-oxo-3,4-dihydro-2H-1,4-benzoxazin-6-yl)carbonyl]-3,4-dihydro-2H-1,4-benzoxazin-3-yl}acetamide], the results for the IC50 (in assay [2]; at human MR LBD [4]) were 0.045 µM and 0.0095 µM, respectively.
Take `CNC(=O)C[C@@H]1COc2cc(F)ccc2N1C(=O)c1ccc2c(c1)NC(=O)CO2` [Example 4b, 2-{(3R)-7-Fluoro-4-[(3-oxo-3,4-dihydro-2H-1,4-benzoxazin-6-yl)carbonyl]-3,4-dihydro-2H-1,4-benzoxazin-3-yl}-N-methylacetamide]: in assay [2] (HEK293, read-out: Test B1, % at 100 μM), the inhibition at 100 µM came out at 35%.

One may read the IC50 as the concentration that gives 50% inhibition.

For the origin of these results see patent US9394291B2, “Benzoxazinone amides as mineralocorticoid receptor modulators” (AstraZeneca AB, priority 2014, dated 2016).
